Assay results published in US6455546B2, “Method for promoting ovulation, parturition, and lactation in mammals” (Clemson University, priority 1996, dated 2002).
Values joined by “and” are separate entries in the source; they are usually repeats but may differ in a detail not shown here. Equal entries are not always repeated. “Also recorded” adds a separate entry of the source.

How the values were obtained:
agalactic mares = experiment: Preparation for parturition, udder development and lactation in agalactic mares; assay type: in vivo;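 also: treated mares were free of fescue toxicosis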
quarter horse mares = experiment: Daily feed intake of mares; assay type: in vivo
Excerpt: Ten quarter horse mares were housed in individual pens and fed a standard feed concentrate weighing 0.5% of each mares' initial body weight at approximately 8:00 A.M. each day during the study. In addition, hay was fed to the mare ad libitum each day. During the night, the mares were placed in a dry lot having no access to food.

mares = experiment: Stimulation of follicular growth and ovulation in mares out of season
animals = animals exposed to other D2 receptor antagonists; cited from earlier work
[1] = individual agalactic mares, 1.1 mg/kg per day orally, 1.1 mg/kg/day
[2] = individual mares, domperidone .55 mg/kg orally daily in molasses, January and February

Row | SMILES | Milk production (agalactic mares; horses, orally about 0.2 mg/kg to about 3.3 mg/kg of body weight) | Did Mare Have A Live Foal? (agalactic mares; individual agalactic mares, 1.1 mg/kg per day orally) | Days Before (−) or After Expected Foaling that Mare Foaled (agalactic mares; [1]) | Mare's Udder Development After Treatment Began (agalactic mares; [1]) | Was Mare Lactating Normally After Foaling? (agalactic mares; [1]) | Adverse side effects (agalactic mares; subcutaneous, amounts greater than 1.32 mg/kg) | Daily hay consumption after treatment began (quarter horse mares; each of the ten mares, 1.1 mg/kg orally daily) | Avg. Hay Consumption After Treatment (quarter horse mares; individual mares, 1.1 mg/kg orally daily for two weeks, hay ad libitum, 1.1 mg/kg) | Mares treated that ovulated (mares; 0.55 mg/kg orally daily, only two of nine control mares ovulated) | Date of Ovulation (mares; [2]) | No. of Days of Treatment Before Ovulation (mares; [2]) | Neurological side effects (mares; mares, 0.55 mg/kg orally daily, during the study) | Neuroleptic side effects (animals)
1 | O=c1[nH]c2ccccc2n1CCCN1CCC(n2c(=O)[nH]c3cc(Cl)ccc32)CC1 [domperidone] | stimulated | Yes | −1 Days and +8 Days and +15 Days and +14 Days and 0 Days and −3 Days (2×) and +3 Days and −2 Days and +12 Days | Increased Weekly; also recorded: Developed Adequately; also recorded: Very Slight; also recorded: Gradual Development; also recorded: Normal Development; also recorded: No Response; also recorded: Immediate; also recorded: Dripping Milk 5th Day | Yes (11×) and No. but drug | without any adverse side effects | increased | 13.0 lbs and 12.2 lbs and 14.1 lbs (2×) and 13.2 lbs and 14.2 lbs and 12.3 lbs and 13.5 lbs and 15.0 lbs and 12.1 lbs | nine of the ten | Feb. 9; also recorded: Feb. 6; also recorded: Feb. 12; also recorded: Feb. 8; also recorded: Feb. 15; also recorded: Feb. 5; also recorded: Feb. 7; also recorded: Feb. 13; also recorded: d/n ovulate; also recorded: Feb. 10 | 18 Days (2×) and 21 Days and 17 Days and 24 Days and 14 Days and 16 Days and 22 Days and d/n ovulate and 19 Days | No neurological side effects were observed | –
2 | CCN(CC)CCNC(=O)c1cc(Cl)c(N)cc1OC [metoclopramide] | – | – | – | – | – | – | – | – | – | – | – | – | neuroleptic side effects have been observed
3 | CCN1CCCC1CNC(=O)c1cc(S(N)(=O)=O)ccc1OC (centres unmarked) [sulpiride] | – | – | – | – | – | – | – | – | – | – | – | – | neuroleptic side effects have been observed
